The subject of test [1] is human PBMC. The class given is cell-based.
In test [2] the test system is human PBMC. The class given is cell-based. The source holds these as a separate data set.
Test [3] concerns human PBMC. The class given is cell-based. The source holds these as a separate data set.
Test [4] concerns human PBMC. It counts as cell-based. The source holds these as a separate data set.
Test [5] deals with human PBMC. The class given is cell-based. This is another data set of the same source.
In test [6] the test system is Rhesus macaque PBMC. The class given is cell-based, Rhesus (Macaca mulatta).
Test [7] has as its system Rhesus macaque PBMC. The class given is cell-based, Rhesus (Macaca mulatta). The source holds these as a separate data set.
The test system of test [8] is Rhesus macaque PBMC. It counts as cell-based, Rhesus (Macaca mulatta). This is another data set of the same source.
In test [9] the test system is human peripheral blood mononuclear cells (PBMCs). It counts as cell-based.
In test [10] the test system is purified human CD4+ and CD8+ T cells. The class given is cell-based.
In the next test the test system is protein kinase C. To be noted: cited from earlier work.

For LLNRKAIDFLLQRWGGT [REBOV peptide], in the test on human PBMC [1], the “absolute T cell numbers (in words)” value is listed as “no significant depletion”; the “expression levels of CD4 and CD8 on PBMC (in words)” value is listed as “No decrease”; the “percentage of cells positive for CD4 and CD8” value (“percentage of cells positive” below) is on record as “not”. For the same sequence, in the test on human PBMC [2], the “CD69+CD4+ T cells (in words)” value is “No effect”; the “IL-2R (CD25) expression in CD4+ and CD8+ T cells (in words)” value is “No effect”; the “percentage of CD69+ CD8+ T cells (in words)” value is on record as “No effect”; the “percentages of both CD69+CD4+ T cells and CD69+CD8+ T cells (in words)” value (“percentages” below) was “No effect”. In the test with human PBMC [3], the “BrdU labeling (in words)” value is “No significant change” and the “cycling pattern (in words)” value is given as “No change”. In addition, the “induction of apoptosis in CD4+ and CD8+ T cells (in words)” value (“induction of apoptosis” for short) in the test on human PBMC [4] is listed as “No significant induction”. Besides, the “cytokine production overall (in words)” value in the test with human PBMC [5] is “No effects”. Further, in the test with Rhesus macaque PBMC [6], the “depletion of CD4+ T cells and CD8+ T cells (in words)” value is “Significant depletion”; the “fold decrease in the number of CD4+ T cells” value is on record as 4.5 fold; the “fold decrease in the number of CD8+ T cells” value amounted to 4.6 fold; the “mean fluorescent intensity of CD69 expression on CD4+ and CD8+ T cells” value is given as “decreased”. In the test on Rhesus macaque PBMC [6], the “number of CD4+ T cells” value is 4.8±0.7 ×10^4, the “number of CD8+ T cells” value is 2.3±0.4 ×10^4, the “percentage of CD4+ rhesus T cells that are CD69+” value is given as 63.6±1.9% and the “percentage of CD8+ rhesus T cells that are CD69+” value stood at 60.7±3.1%. Moreover, in the test on Rhesus macaque PBMC [7], the “fold increase in apoptotic CD4+ cells” value came out at 3.1 fold, the “fold increase in apoptotic CD8+ cells” value is 2.6 fold and the “percentage of Annexin V+ P1− CD8+” value turned out to be 31.8±3.3%. For the same sequence, in the test with Rhesus macaque PBMC [8], the IFN-γ entry is given as “significant decrease”, the IL1-β result is given as “significant decrease”, the IL-12p40 entry is listed as “significant decrease” and the “Levels of IL-8” value is reported as “did not alter”. Also, in the test with Rhesus macaque PBMC [8], the “Levels of MIP1-α” value is “did not alter”, the TNF-α entry is given as “significant decrease” and the “release of IL-2” value is on record as “decreased release”.
For the sequence LINRHAIDFLLTRWGGT [MARV peptide], the “percentage of cells positive” value with human PBMC [1] was “significant decrease”. Also, in the test with human PBMC [2], the “CD69+CD4+ T cells (in words)” value is given as “trend toward reduction”; the “percentage of CD69+ CD8+ T cells (in words)” value was “significant reduction”; the “percentages” value is listed as “significant reduction”. Moreover, the “induction of apoptosis” value in the test with human PBMC [4] is listed as “Effects were similar”.
Consider ILNRKAIDFLLQRWGGT [SEBOV peptide], for which, in the test on human PBMC [2], the “CD69+CD4+ T cells (in words)” value was “trend toward reduction” and the “percentage of CD69+ CD8+ T cells (in words)” value is recorded as “significant reduction”. The “induction of apoptosis” value with human PBMC [4] is “Effects were similar”.
For the sequence ILNRKAIDFLLQRWGGT [ZEBOV peptide], in the test with human PBMC [1], the “fold decrease in the number of CD4+ T cells” value was found to be 7.4 fold, the “fold decrease in the number of CD8+ T cells” value is on record as 4.4 fold, the “fold reduction in the cell surface expression of CD4” value turned out to be 3.5 fold and the “fold reduction in the cell surface expression of CD8” value was 4.2 fold. Moreover, in the test on human PBMC [1], the “mean fluorescence intensity value for CD4 expression ± SD” value was found to be 961±40, the “mean fluorescence intensity value for CD8 expression ± SD” value is on record as 4,025±75, the “number of CD4+ T cells” value is 5.5±1.8 ×10^4 and the “number of CD8+ T cells” value was 5.8±1.6 ×10^4. Also, in the test on human PBMC [1], the “percentage of cells positive” value is on record as “significant decrease”. For the same sequence, in the test with human PBMC [2], the “mean fluorescent intensity of CD25 expression on CD4+ and CD8+ T cells” value is recorded as “decreased”; the “mean fluorescent intensity of CD69 expression on CD4+ and CD8+ T cells” value was “decreased”; the “percentage of CD4+ T cells that are CD25+” value was found to be 65.9±11.8%; the “percentage of CD4+ T cells that are CD69+” value is recorded as 69.4±3.4%. Moreover, in the test with human PBMC [2], the “percentage of CD8+ T cells that are CD25+” value was 43.9+9.0%; the “percentage of CD8+ T cells that are CD69+” value worked out at 67.9±9.6%; the “percentages” value was “significant reduction”. In the test on human PBMC [3], the “fold decrease in the percentage of cells in the S phase” value worked out at 3.5 fold, the “fold increase in the number of cells with hypodiploid DNA content” value was determined as 8.8 fold, the “percentage of BrdU labeled CD4+ cells” value was found to be 3.9±0.6% and the “percentage of BrdU labeled CD8+ cells” value is 4.8±1.8%. Besides, in the test on human PBMC [3], the “percentage of cells in S phase” value was 8.0±0.5% and the “percentage of cells with hypodiploid DNA” value worked out at 22.0±2.2%. In the test on human PBMC [4], the “fold increase in apoptotic CD4+ cells” value is recorded as 3.6 fold, the “fold increase in apoptotic CD8+ cells” value is 2.0 fold, the “percentage of Annexin V+ PI- CD4+” value amounted to 43.6±5.8% and the “percentage of Annexin V+ PI− CD8+” value came out at 29.7±3.7%. In addition, in the test on human PBMC [5], the IL-1β result is “dose-dependent reduction”, the IL-4 entry is recorded as “trend toward decrease”, the IL-6 entry was “no pattern” and the IL-10 result is recorded as “increase”. Also, in the test on human PBMC [5], the MCP-1 entry is on record as “dose-dependent reduction”, the MIP1-α result is recorded as “no effect”, the TNF-α result was “dose-dependent reduction” and the “anti-CD3/CD28-induced production of IFN-γ” value is listed as “suppressed”. Also, in the test on human PBMC [5], the “anti-CD3/CD28-induced production of IL-12p40” value is on record as “suppressed” and the “production of IL-2” value is given as “suppressed”. In the test with Rhesus macaque PBMC [6], the “T cell activation (in words)” value is given as “Decreased”; the “depletion of CD4+ T cells and CD8+ T cells (in words)” value is “Significant depletion”. Further, in the test with Rhesus macaque PBMC [7], the “apoptosis (in words)” value is on record as “increased”. Moreover, in the test on Rhesus macaque PBMC [8], the IFN-γ entry was “significant decrease”, the IL1-β result was “significant decrease”, the IL-12p40 result is recorded as “significant decrease” and the “Levels of IL-8” value is listed as “did not alter”. In the test with Rhesus macaque PBMC [8], the “Levels of MIP1-α” value is “did not alter” and the TNF-α entry is on record as “significant decrease”. Also, in [9], the “levels of IL-2” value is reported as “decreased levels”, the “levels of IL-10” value is “increased levels” and the “levels of IL-12” value was “decreased levels”. Also, the “activation and cell death in purified CD4+ or CD8+ T cell population” value in [10] was “sufficient to induce activation and cell death”.
In the case of “LQNRRGLDLLFLKEGGL [CKS-17, reference compound]”, in [9], the “levels of IL-2” value is reported as “decreased levels”, the “levels of IL-10” value is “increased levels” and the “levels of IL-12” value was “decreased levels”. Further, the “activity of protein kinase C” value in the test with protein kinase C is listed as “blocks the activity”.

The values are drawn from patent US20150183834A1 (priority 2005, published 2015).
